Measured values reported in patent US7582622B2 (N.V. Organon, priority 2003, dated 2009).

Legend:
serum LH = assay: LH suppression assay in mature male castrated rats, p.o.; format: in vivo, rat; conditions: for oral activity (in words): statement in the introduction, test not named; for LH-Suppression MAD po: minimal active dose suppressing serum LH for 65%, castrated male rats, p.o. 4 days daily
Procedure: The in vivo potency of the compounds of the invention was determined in a mature male castrated rat model.
In this model serum LH is high (about 20× fold higher than with intact rats, due to the absence of the negative feedback of testicular testosterone). These rats are p.o. treated for 4 days daily with a given compound of the invention in a suspension fluid of arachis oil or arachis oil +5 or 10% ethanol. Before dosing and 3 hours after the last oral dose blood is collected via tail vein and in the serum LH is determined. Potency (p.o.) of the compounds of the invention (minimal active dose, MAD) is expressed as the amount (mg/kg) of a compound of the invention which suppresses serum LH for 65% (with a 95% confidence interval).
The rat LH Time-Resolved Immuno Fluorometric Assay (TR-IFMA) has been developed in house using home made reagents, a monoclonal catching antibody directed against the β-subunit of human chorion gonadotrophin (hCG, which cross reacts with rat β-subunit) and a biotin labelled detecting antibody (rabbit polydonal antibody directed against the alfa-subunit of recombinant rat LH). Recombinant rat LH was prepared according to known methods, e.g., the method described by Hakola et aL., Molecular & Cellular Endocrinology (1997), 128, 47-56. In this two-site-IFMA, only intact rat LH is determined by a final incubation with streptavidin-europium. The detection in the IFMA is based on fluorescence of the lanthanide europium during a relative long excitation period. The concentration range of rat LH standard is 0.001-10 ng/ml, for optimal accuracy measurements of serum LH serum samples were diluted 8-times with assay buffer (J. I. van Casteren et al., Biol. Reprod. (2000), 62, 886-894).

[1] = molecular target: T1, human androgen receptor (hAR) (Homo sapiens, UniProt P10275); assay: transactivative androgen agonistic activity, CHO cells transfected with hAR, MMTV-luciferase; format: cell-based; design: Androgenic Activity (%): concentration or dose not given beside the values; conditions: for Androgenic Activity (%): compared with 5α-dihydrotestosterone, CHO-hAR, 16 h, 37° C.
T1 construct: expressed in transfected cells; host or cells: Chinese hamster ovary cells (CHO)
T1 sequence (P10275 1-920): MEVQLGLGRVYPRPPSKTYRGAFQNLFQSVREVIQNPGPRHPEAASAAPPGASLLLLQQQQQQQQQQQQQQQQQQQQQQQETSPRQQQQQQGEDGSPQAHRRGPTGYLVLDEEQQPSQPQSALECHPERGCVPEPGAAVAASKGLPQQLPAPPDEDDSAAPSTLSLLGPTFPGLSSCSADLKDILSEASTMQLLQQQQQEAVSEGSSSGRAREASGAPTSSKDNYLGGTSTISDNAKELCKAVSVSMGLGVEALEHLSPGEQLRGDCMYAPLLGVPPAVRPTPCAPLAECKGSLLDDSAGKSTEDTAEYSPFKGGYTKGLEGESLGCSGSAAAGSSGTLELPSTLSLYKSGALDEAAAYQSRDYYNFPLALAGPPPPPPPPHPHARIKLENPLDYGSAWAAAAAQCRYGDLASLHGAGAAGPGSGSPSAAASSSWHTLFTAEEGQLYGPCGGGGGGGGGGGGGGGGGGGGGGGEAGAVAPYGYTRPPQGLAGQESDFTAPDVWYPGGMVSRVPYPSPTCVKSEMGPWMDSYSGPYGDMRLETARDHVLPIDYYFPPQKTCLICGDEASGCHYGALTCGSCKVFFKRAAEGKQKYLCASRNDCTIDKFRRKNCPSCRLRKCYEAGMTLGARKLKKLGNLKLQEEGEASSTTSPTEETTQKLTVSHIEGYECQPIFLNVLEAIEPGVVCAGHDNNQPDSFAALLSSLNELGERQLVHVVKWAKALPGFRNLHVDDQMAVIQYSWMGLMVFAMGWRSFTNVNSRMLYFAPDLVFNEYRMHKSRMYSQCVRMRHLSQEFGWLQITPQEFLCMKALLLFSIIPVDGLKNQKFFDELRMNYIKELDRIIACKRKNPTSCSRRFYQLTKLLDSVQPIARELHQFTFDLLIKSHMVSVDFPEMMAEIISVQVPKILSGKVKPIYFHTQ
Procedure: (§1) The transactivative androgen agonistic activity of the compounds of the invention was measured in Chinese hamster ovary cells (CHO) transfected with the human androgen receptor (hAR), in combination with a mouse mammary tumor virus (MMTV), and luciferase receptor gene (incubation time 16 h, temperature 37° C.) and compared with the activity of 5α-dihydrotestosterone [according to the procedure described by Schoonen, W. G. E. J. et aL., Analyt. Biochem. 261, 222-224 (1998)].

[2] = Anti-osteoporosis test in mature male castrated rats (6 weeks treatment); format: in vivo, rat; conditions: for Mean proportional difference in bone density: placebo intact 100%, placebo orx 0%; for BMD (gmean ± sem): orx male rats, trabecular BMD of femur
Procedure: In this test the oral efficacy of a compound of the invention for the prevention of castration-induced trabecular bone mineral density (BMD) loss in male rats was evaluated.
Mature male Wistar rats (350-400 g) were used. Orchidectomy (orx) or sham operation was performed under isoflurane anaesthesia. After recovery of anaesthesia, within 24 hours, rats were treated once daily for 6 weeks p.o. with different doses of the compounds of the invention or vehicle only (placebo intact, placebo orx) with a volume of 1 ml/kg (n=5). One day after the last administration autopsy is performed and the right femur is dissected out. Trabecular bone mineral density of the metaphysal part of the femur was measured with a pQCT (peripheral Quantitative Computed Tomography machine; XCT 960A, Stratec, Birkenfeld, Germany).

[3] = molecular target: T2, human progesterone receptor B (hPRB) (Homo sapiens, UniProt P06401); assay: transactivative progestagenic agonistic activity, CHO cells transfected with hPRB, MMTV-luciferase; format: cell-based; design: Progestational Activity (%): concentration or dose not given beside the values; conditions: for Progestational Activity (%): compared with (16α)-16-ethyl-21-hydroxy-19-norpregn-4ene-3,20-dione, CHO-hPRB, 16 h, 37° C.; for progestagenic activity (in words): statement in the introduction, test not named
T2 construct: expressed in transfected cells; host or cells: Chinese hamster ovary cells (CHO)
T2 sequence (P06401 1-933): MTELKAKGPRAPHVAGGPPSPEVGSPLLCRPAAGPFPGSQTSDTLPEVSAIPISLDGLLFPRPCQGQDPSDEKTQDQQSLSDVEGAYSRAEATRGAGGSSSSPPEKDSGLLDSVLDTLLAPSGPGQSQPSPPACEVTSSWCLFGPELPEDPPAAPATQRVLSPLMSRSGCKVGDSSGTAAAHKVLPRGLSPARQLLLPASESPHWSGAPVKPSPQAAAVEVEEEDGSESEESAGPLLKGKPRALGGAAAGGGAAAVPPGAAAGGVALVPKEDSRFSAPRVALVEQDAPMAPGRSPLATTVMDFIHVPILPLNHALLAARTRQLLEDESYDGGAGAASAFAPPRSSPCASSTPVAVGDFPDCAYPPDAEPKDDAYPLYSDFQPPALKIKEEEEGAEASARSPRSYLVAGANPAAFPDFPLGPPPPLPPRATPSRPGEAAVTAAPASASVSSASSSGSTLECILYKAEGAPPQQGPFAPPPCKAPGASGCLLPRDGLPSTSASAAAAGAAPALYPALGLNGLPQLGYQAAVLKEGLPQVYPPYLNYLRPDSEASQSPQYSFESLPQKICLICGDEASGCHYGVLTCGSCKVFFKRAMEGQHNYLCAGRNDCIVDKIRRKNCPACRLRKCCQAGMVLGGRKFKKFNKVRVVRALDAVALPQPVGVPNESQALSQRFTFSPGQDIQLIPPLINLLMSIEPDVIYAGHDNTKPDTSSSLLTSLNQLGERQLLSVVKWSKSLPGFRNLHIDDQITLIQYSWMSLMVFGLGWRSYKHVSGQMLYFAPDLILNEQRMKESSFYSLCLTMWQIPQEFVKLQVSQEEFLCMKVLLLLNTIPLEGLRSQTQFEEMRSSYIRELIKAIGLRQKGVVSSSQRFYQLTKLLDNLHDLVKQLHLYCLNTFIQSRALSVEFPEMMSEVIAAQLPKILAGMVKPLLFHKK
Procedure: as §1, with “transactivative progestagenic” for “transactivative androgen”, “human progesterone” for “human androgen”, “receptor B (hPRB),” for “receptor (hAR),”, “of (16α)-16-ethyl-21-hydroxy-19-norpregn-4ene-3,20-dione” for “of 5α-dihydrotestosterone”, “et al.,” for “et aL.,”

[4] = J. Seaman, Toxicologic Pathology (1985); cited from earlier work
[5] = prior art statement; cited from earlier work

| Compound | oral activity (in words) (serum LH) | Androgenic Activity (%) [1] | LH-Suppression MAD po (serum LH) | Progestational Activity (%) [3] | further results |
| --- | --- | --- | --- | --- | --- |
| CCC1(O)CCCC2C3CCC4=CC(=O)CCC4C3CCC21CC [(17aβ)13,17a-diethyl-17a-hydroxy-D-homogon-4-en-3-one] | not orally active | – | – | – | – |
| CCC12CCC3C4CCC(=O)C=C4CCC3C1CCCC2(C)O [(17aβ)-13-ethyl-17a-hydroxy-17a-methyl-D-homogon-4-en-3-one] | not orally active | – | – | – | – |
| CCC12CCC3C4CCC(=O)C=C4CCC3C1CCCC2O [(17aβ)-13-ethyl-17a-hydroxy-D-homogon4-en-3-one] | not orally active | – | – | – | – |
| CC1CC2=CC(=O)CCC2C2CCC3(C)C(CCCC3(C)O)C12 [Cpd of Example 1, (7α,17aβ)-17a-hydroxy-7,17a-dimethyl-D-homoestr4-en-3-one] | – | 42.9% | 8.5 mg/kg | 53.3% | Mean proportional difference in bone density ([2]; 8 mg/kg p.o. 6 weeks): 133%; BMD (gmean ± sem) ([2]; 8 mg/kg p.o. once daily 6 weeks): 255 ± 22 |
| CCC1(O)CCCC2C3C(C)CC4=CC(=O)CCC4C3CCC21C [Cpd of Example 2, (7α,17aβ)-17aethyl-17a-hydroxy-7-methyl-D-homoestr-4en-3-one] | – | 9.9% | 10 mg/kg | 29.7% | – |
| CC1(O)CCCC2C3CCC4=CC(=O)CCC4C3CCC21C [Reference compound A, (17aβ)-17a-Hydroxy-17a-methyl-D-homoestr-4-en-3-one] | low activity upon oral administration | 71.6% | >30 mg/kg | 98.0% | Mean proportional difference in bone density ([2]; 16 mg/kg p.o. 6 weeks): 28%; BMD (gmean ± sem) ([2]; 16 mg/kg p.o. once daily 6 weeks): 133 ± 20; prevention of trabecular bone mineral density (BMD) loss (in words) ([2]; statement in the introduction): unable to prevent trabecular bone mineral density (BMD) loss; progestagenic activity (in words) [3]: progestagenic activity |
| CC1CC2=CC(=O)CCC2C2CCC3(C)C(O)CCCC3C12 [Reference compound B, (7α,17aβ)-17a-Hydroxy-7-methyl-D-homoestr-4-en-3-one] | not orally active | 25.3% | >30 mg/kg | 10.6% | androgenic activity (in words) ([1]; statement in the introduction, test not named): mixed androgenic and progestagenic profile; progestagenic activity (in words) [3]: mixed androgenic and progestagenic profile |
| C[C@@H]1CC2=CC(=O)CC[C@@H]2[C@H]2CC[C@@]3(C)[C@@H](CC[C@]3(C)O)[C@@H]21 [Reference compound C, (7α,17β)-17-Hydroxy-7,17-dimethylestr-4-en-3-one] | – | 220% | 1.0 mg/kg | 45% | liver toxicity (in words) [4]: severe liver toxicity; oral activity (in words) [5]: orally active |
